One test has as its system Shh Light II. Put plainly: Inhibition of purmorphamine-induced osteoblast differentiation in mouse Shh Light II cells preincubated for 1 hr followed by purmorphamine addition for 48 hrs by luminescence based reporter gene assay. Type of test: functional, cell-based.
Another test deals with C3H 10T1/2. Put plainly: Inhibition of purmorphamine-induced osteoblast differentiation in mouse C3H 10T1/2 cells assessed as reduction in alkaline phosphatase level preincubated for 1 hr followed by purmorphamine addition for 4 days by luminescence based assay. The class given is functional, cell-based.

The values that follow come from ChEMBL document CHEMBL5512662, “Illuminating Dark Chemical Matter Using the Cell Painting Assay” (J Med Chem, 2024).

For orientation: IC50 means the point on the concentration scale where inhibition reaches its midpoint.

Take `CN(CCCNC(=O)c1nn(C)c2c1CS(=O)(=O)c1ccccc1-2)Cc1ccccc1`: the results for the concentration for half-maximal inhibition (IC50) in the test with Shh Light II and in the test with C3H 10T1/2 were 2170 nM and 310 nM, respectively. Consider `COc1ccccc1CCNC(=O)CCCn1nc(C)c2c(C)n(-c3ccc(C)cc3)nc2c1=O`, for which the figures for the IC50 with Shh Light II and in the test on C3H 10T1/2 were 1400 nM and 540 nM, respectively.

For `CCOc1ccc(Oc2nc(Nc3ccc(C)cc3)nc(N(C)C)n2)nn1`, in the test with C3H 10T1/2, the half-inhibitory concentration (IC50) came to 320 nM. For `COCCNC(=O)C1CCN(C(=O)c2cc3sccc3n2Cc2ccc(F)cc2)CC1`, the results for the half-maximal inhibitory concentration (IC50) in the test with Shh Light II and in the test on C3H 10T1/2 were 470 nM and 90 nM, respectively.
